Results reported in patent EP0774249A2, “Topical composition containing specific flavanones” (UNILEVER PLC, priority 1995, dated 1997).
Entries after “also recorded” stand apart in the source; their conditions may differ. Like-named read-outs stand apart in the source and are kept apart here. Values belong to the compound of their own block, whether it stands above or below them.

System: Human Epidermal Keratinocytes
Test: Transglutaminase (TG-1) assay, ELISA on cultured keratinocytes
Assay type: cell-based
Conditions: for Effects on Differentiation (TG-1): after 72 hour incubation; for morphology of the cells / cytotoxic effect on keratinocytes: observation of the cultures; for TG-1 Expressed Day 1 / TG-1 Expressed Day 2: concentrations not given; for TG-1 production DAY 2 / TG-1 production DAY 3 / TG-1 production DAY 1: absorbance OD 490nm; for TG-1 production DAY 2: control 0.134 (Exp. 1), 0.152 (Exp. 2), 0.174 (Exp. 3); for TG-1 production DAY 3: control 0.143 (Exp. 1), 0.200 (Exp. 2), 0.218 (Exp. 3); for TG-1 production DAY 1: control 0.154 (Exp. 1), 0.179 (Exp. 2), 0.181 (Exp. 3); for stimulation of differentiation (TG-1 production) against the control: 10, 25, 50 µg/mL, days 1 to 3 (Table 2); for activity at 10 µg/mL / activity at 25 µg/mL / activity at 50 µg/mL: Homo sapiens, Keratinocyte; for TG-1 expressed on Day 1: single flavanone
[1] = Experiment 1, control 0.17 ± 0.01
[2] = Experiment 1, control 0.21 ± 0.02
[3] = Experiment 2, control 0.16 ± 0.01
[4] = Experiment 2, control 0.20 ± 0.01
[5] = 24 h, 10 µg/mL, read-out: DAY 1 (% over control) (converted)
[6] = 24 h, 25 µg/mL, read-out: DAY 1 (% over control) (converted)
[7] = 24 h, 50 µg/mL, read-out: DAY 1 (% over control) (converted)
[8] = 48 h, 10 µg/mL, read-out: DAY 2 (% over control) (converted)
[9] = 48 h, 25 µg/mL, read-out: DAY 2 (% over control) (converted)
[10] = 48 h, 50 µg/mL, read-out: DAY 2 (% over control) (converted)
[11] = 72 h, 10 µg/mL, read-out: DAY 3 (% over control) (converted)
[12] = 72 h, 25 µg/mL, read-out: DAY 3 (% over control) (converted)
[13] = 72 h, 50 µg/mL, read-out: DAY 3 (% over control) (converted)
[14] = 5μg/mL, control 0.17 (Exp. 1), 0.19 (Exp. 3)
[15] = 10μg/mL, control 0.17 (Exp. 1), 0.19 (Exp. 3)

Compound: O=c1cc(-c2ccc(O)cc2)oc2cc(O)cc(O)c12 [Apigenin, reference compound]
Effects on Differentiation (TG-1) (5 and 15 µg/ml): No effect
morphology of the cells / cytotoxic effect on keratinocytes (5 and 15 µg/ml): disrupted the cell membranes

Compound: CCCCCCCCCCCCC/C=C/C(O)C(CO)NC(C)=O (stereo not shown) [C2-Ceramide (Formula A)]
TG-1 Expressed Day 1 [1]: 0.15 ± 0.01^1
TG-1 Expressed Day 2 [2]: 0.23 ± 0.02^3

Compound: CCCCCCCCCCCCCCCCN(CC(O)CO)C(C)=O (stereo not shown) [C2-Neoceramide (Formula F)]
TG-1 Expressed Day 1 [3]: 0.16 ± 0.01
TG-1 Expressed Day 2 [4]: 0.21 ± 0.02

Compound: O=c1cc(-c2ccccc2)oc2cc(O)cc(O)c12 [Chrysin, reference compound]
Effects on Differentiation (TG-1) (5 and 15 µg/ml): No effect

Compound: O=c1ccc2ccccc2o1 [Coumarin, reference compound]
Effects on Differentiation (TG-1) (5 and 15 µg/ml): No effect

Compound: O=c1c(-c2ccc(O)cc2)coc2cc(O)ccc12 [Daidzein, reference compound]
stimulation or inhibition of differentiation processes, time course study (5 and 15 µg/ml): no effects
Effects on Differentiation (TG-1) (5 and 15 µg/ml): No effect
morphology of the cells / cytotoxic effect on keratinocytes (5 and 15 µg/ml): no morphological changes

Compound: Oc1cc(O)c2c(c1)O[C@H](c1ccc(O)c(O)c1)[C@H](O)C2 [Epicatechin, reference compound]
Effects on Differentiation (TG-1) (5 and 15 µg/ml): No effect

Effects on Differentiation (TG-1) (5 and 15 µg/ml): Increase TG-1
Effects on Differentiation (TG-1) (5 and 15 µg/ml, listed as eriodictyol): stimulated TG-1 production
Compound: O=C1CC(c2ccc(O)c(O)c2)Oc2cc(O)cc(O)c21 (stereo not shown) [Eriodictyol]
TG-1 production DAY 2 (10 µg/mL): 0.194 ± 0.01
TG-1 production DAY 3 (10 µg/mL): 0.264 ± 0.03
TG-1 production DAY 1 (10 µg/mL): 0.178 ± 0.02
TG-1 production DAY 2 (25 µg/mL): 0.222 ± 0.05
TG-1 production DAY 3 (25 µg/mL): 0.314 ± 0.07
TG-1 production DAY 1 (25 µg/mL): 0.211 ± 0.04
TG-1 production DAY 2 (50 µg/mL): 0.174 ± 0.02
TG-1 production DAY 3 (50 µg/mL): 0.193 ± 0.05
TG-1 production DAY 1 (50 µg/mL): 0.186 ± 0.02
stimulation of differentiation (TG-1 production) against the control: stimulated differentiation to the same extent or higher than the control
activity at 10 µg/mL [5]: 99%
activity at 25 µg/mL [6]: 118%
activity at 50 µg/mL [7]: 104%
activity at 10 µg/mL [8]: 128%
activity at 25 µg/mL [9]: 146%
activity at 50 µg/mL [10]: 115%
activity at 10 µg/mL [11]: 132%
activity at 25 µg/mL [12]: 157%
activity at 50 µg/mL [13]: 97%

Compound: O=c1c(O)c(-c2ccc(O)c(O)c2)oc2cc(O)ccc12 [Fisetin, reference compound]
Effects on Differentiation (TG-1) (5 and 15 µg/ml): No effect

Compound: COc1ccc(-c2coc3cc(O)ccc3c2=O)cc1 [Formonoetin, reference compound]
Effects on Differentiation (TG-1) (5 and 15 µg/ml): No effect

Effects on Differentiation (TG-1) (5 and 15 µg/ml): Increase TG-1
Compound: COc1ccc(C2CC(=O)c3c(O)cc(O)cc3O2)cc1O (stereo not shown) [Hesperetin]
TG-1 expressed on Day 1 [14]: 0.19 ± 0.01 ^1
TG-1 expressed on Day 1 [15]: 0.19 ± 0.02 ^1
TG-1 production DAY 2 (10 µg/mL): 0.155 ± 0.01
TG-1 production DAY 3 (10 µg/mL): 0.190 ± 0.01
TG-1 production DAY 1 (10 µg/mL): 0.142 ± 0.01
TG-1 expressed on Day 1 (20μg/mL, control 0.19 (Exp. 2)): 0.20 ± 0.02
TG-1 production DAY 2 (25 µg/mL): 0.167 ± 0.02
TG-1 production DAY 3 (25 µg/mL): 0.182 ± 0.01
TG-1 production DAY 1 (25 µg/mL): 0.148 ± 0.02
TG-1 expressed on Day 1 (40μg/mL, control 0.19 (Exp. 2)): 0.20 ± 0.01
TG-1 production DAY 2 (50 µg/mL): 0.213 ± 0.04
TG-1 production DAY 3 (50 µg/mL): 0.196 ± 0.01
TG-1 production DAY 1 (50 µg/mL): 0.154 ± 0.04
Effects on Differentiation (TG-1) (5 and 15 µg/ml, listed as hesperetin): effective keratinocyte pro-differentiating agents; also recorded: stimulated TG-1 production
stimulation of differentiation (TG-1 production) against the control: stimulated differentiation to the same extent or higher than the control
TG-1 Expressed Day 1 [1]: 0.14 ± 0.01^1
TG-1 Expressed Day 2 [2]: 0.22 ± 0.02
TG-1 Expressed Day 1 [3]: 0.15 ± 0.01^2
TG-1 Expressed Day 2 [4]: 0.21 ± 0.02
activity at 10 µg/mL [5]: 92%
activity at 25 µg/mL [6]: 96%
activity at 50 µg/mL [7]: 100%
activity at 10 µg/mL [8]: 116%
activity at 25 µg/mL [9]: 125%
activity at 50 µg/mL [10]: 159%
activity at 10 µg/mL [11]: 133%
activity at 25 µg/mL [12]: 127%
activity at 50 µg/mL [13]: 137%

Compound: COc1ccc([C@@H]2CC(=O)c3c(O)cc(O[C@@H]4O[C@H](CO[C@@H]5O[C@@H](C)[C@H](O)[C@@H](O)[C@H]5O)[C@@H](O)[C@H](O)[C@H]4O)cc3O2)cc1O [Hesperidin, reference compound]
Effects on Differentiation (TG-1) (5 and 15 µg/ml): No effect

Effects on Differentiation (TG-1) (5 and 15 µg/ml): Increase TG-1
Compound: O=C1C[C@@H](c2ccc(O)cc2)Oc2cc(O)cc(O)c21 [Naringenin]
TG-1 expressed on Day 1 [14]: 0.19 ± 0.02
TG-1 expressed on Day 1 [15]: 0.21 ± 0.01 ^5
TG-1 production DAY 2 (10 µg/mL): 0.149 ± 0.01
TG-1 production DAY 3 (10 µg/mL): 0.159 ± 0.01
TG-1 production DAY 1 (10 µg/mL): 0.147 ± 0.01
TG-1 production DAY 2 (25 µg/mL): 0.200 ± 0.03
TG-1 production DAY 3 (25 µg/mL): 0.171 ± 0.02
TG-1 production DAY 1 (25 µg/mL): 0.207 ± 0.02
TG-1 production DAY 2 (50 µg/mL): 0.186 ± 0.01
TG-1 production DAY 3 (50 µg/mL): 0.169 ± 0.01
TG-1 production DAY 1 (50 µg/mL): 0.156 ± 0.01
Effects on Differentiation (TG-1) (5 and 15 µg/ml, listed as naringenin): effective keratinocyte pro-differentiating agents; also recorded: stimulated TG-1 production
stimulation of differentiation (TG-1 production) against the control: stimulated differentiation to the same extent or higher than the control
activity at 10 µg/mL [5]: 99%
activity at 25 µg/mL [6]: 134%
activity at 50 µg/mL [7]: 101%
activity at 10 µg/mL [8]: 111%
activity at 25 µg/mL [9]: 149%
activity at 50 µg/mL [10]: 139%
activity at 10 µg/mL [11]: 111%
activity at 25 µg/mL [12]: 120%
activity at 50 µg/mL [13]: 118%

Compound: CC1OC(OC2C(Oc3cc(O)c4c(c3)OC(c3ccc(O)cc3)CC4=O)OC(CO)C(O)C2O)C(O)C(O)C1O (stereo not shown) [Naringin, reference compound]
Effects on Differentiation (TG-1) (5 and 15 µg/ml): No effect
Effects on Differentiation (TG-1) (5 and 15 µg/ml, listed as naringin): not an effective material for promoting the differentiation of keratinocytes

Compound: O=c1c(O)c(-c2ccc(O)c(O)c2)oc2cc(O)cc(O)c12 [Quercetin, reference compound]
Effects on Differentiation (TG-1) (5 and 15 µg/ml): No effect

Effects on Differentiation (TG-1) (5 and 15 µg/ml): Increase TG-1
Effects on Differentiation (TG-1) (5 and 15 µg/ml, listed as taxifolin): stimulated TG-1 production
Compound: O=C1c2c(O)cc(O)cc2O[C@H](c2ccc(O)c(O)c2)[C@H]1O [Taxifolin]
TG-1 production DAY 2 (10 µg/mL): 0.204 ± 0.04
TG-1 production DAY 3 (10 µg/mL): 0.231 ± 0.03
TG-1 production DAY 1 (10 µg/mL): 0.153 ± 0.02
TG-1 production DAY 2 (25 µg/mL): 0.212 ± 0.03
TG-1 production DAY 3 (25 µg/mL): 0.226 ± 0.02
TG-1 production DAY 1 (25 µg/mL): 0.175 ± 0.04
TG-1 production DAY 2 (50 µg/mL): 0.159 ± 0.01
TG-1 production DAY 3 (50 µg/mL): 0.199 ± 0.04
TG-1 production DAY 1 (50 µg/mL): 0.150 ± 0.02
stimulation of differentiation (TG-1 production) against the control: stimulated differentiation to the same extent or higher than the control
activity at 10 µg/mL [5]: 85%
activity at 25 µg/mL [6]: 97%
activity at 50 µg/mL [7]: 84%
activity at 10 µg/mL [8]: 117%
activity at 25 µg/mL [9]: 122%
activity at 50 µg/mL [10]: 92%
activity at 10 µg/mL [11]: 106%
activity at 25 µg/mL [12]: 104%
activity at 50 µg/mL [13]: 92%
